Assay results as given in patent US20220105081A1 (priority 2020, published 2022).
Entries after “also recorded” stand apart in the source; their conditions may differ.

Tests used:
[1] = target: ORL1 receptors (Homo sapiens, UniProt P41146); assay: Receptor activity profile (stated)
[2] = target: kappa receptors (Homo sapiens, UniProt P41145); assay: Receptor activity profile (stated)
[3] = test system: morphine-dependent rats; assay: Opiate withdrawal signs in morphine-dependent rats
[4] = target: OPRM1 (Mu Opiate receptor) (Homo sapiens, UniProt P35372); assay: DiscoverX GPCR Max Panel screen; format: cell-based; details: VDM-001 at 30 μM; Assay Mode Antagonist
Sequence of OPRM1 (Mu Opiate receptor) (P35372 whole entry): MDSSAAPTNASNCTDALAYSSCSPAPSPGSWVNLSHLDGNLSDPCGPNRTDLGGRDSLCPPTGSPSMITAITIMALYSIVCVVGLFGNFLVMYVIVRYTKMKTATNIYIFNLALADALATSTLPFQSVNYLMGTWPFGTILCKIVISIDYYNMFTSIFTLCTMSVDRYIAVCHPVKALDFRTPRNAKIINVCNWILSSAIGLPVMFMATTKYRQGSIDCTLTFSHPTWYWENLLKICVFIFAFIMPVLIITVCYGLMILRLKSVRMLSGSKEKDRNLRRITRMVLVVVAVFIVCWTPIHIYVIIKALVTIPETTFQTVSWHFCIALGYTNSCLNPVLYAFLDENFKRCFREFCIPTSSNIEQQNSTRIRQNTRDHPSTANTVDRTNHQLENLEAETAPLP
Protocol: (§1) In Example 2, DiscoverX platform screening (GPCR Max Panel) of VDM-001(composition of formula I)) at a concentration of 30 μM (the IC50 for VDM-001 from the GTPgS studies) was conducted to confirm the data from the GTPgS study and to determine broad selectivity of over 336 protein targets. MOR antagonism was confirmed (87% activity) along with other targets with >50%. Overall 13 proteins were engaged by VDM-001 with greater than 50% activity.

[5] = target: T1, CHRM1 (Cholinergic Muscarinic Receptor 1) (Homo sapiens, UniProt P11229); assay: DiscoverX GPCR Max Panel screen; format: cell-based; details: VDM-001 at 30 μM; Assay Mode Antagonist
T1 sequence (P11229 1-460): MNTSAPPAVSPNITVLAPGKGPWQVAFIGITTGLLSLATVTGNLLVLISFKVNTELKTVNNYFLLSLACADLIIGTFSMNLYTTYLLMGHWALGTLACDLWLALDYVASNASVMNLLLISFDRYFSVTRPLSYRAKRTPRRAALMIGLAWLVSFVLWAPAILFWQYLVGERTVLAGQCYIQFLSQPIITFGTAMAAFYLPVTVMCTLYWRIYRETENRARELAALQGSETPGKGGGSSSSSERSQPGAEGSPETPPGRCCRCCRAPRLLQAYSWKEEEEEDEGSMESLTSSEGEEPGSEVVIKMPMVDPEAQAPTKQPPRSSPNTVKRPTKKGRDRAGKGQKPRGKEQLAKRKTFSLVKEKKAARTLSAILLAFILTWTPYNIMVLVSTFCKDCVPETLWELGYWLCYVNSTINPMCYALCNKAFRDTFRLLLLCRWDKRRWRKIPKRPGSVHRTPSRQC
Protocol: as §1

[6] = target: T2, ADRA2C (Adrenergic receptor alpha 2C) (Homo sapiens, UniProt P18825); assay: DiscoverX GPCR Max Panel screen; format: cell-based; details: VDM-001 at 30 μM; Assay Mode Antagonist
T2 sequence (P18825 1-462): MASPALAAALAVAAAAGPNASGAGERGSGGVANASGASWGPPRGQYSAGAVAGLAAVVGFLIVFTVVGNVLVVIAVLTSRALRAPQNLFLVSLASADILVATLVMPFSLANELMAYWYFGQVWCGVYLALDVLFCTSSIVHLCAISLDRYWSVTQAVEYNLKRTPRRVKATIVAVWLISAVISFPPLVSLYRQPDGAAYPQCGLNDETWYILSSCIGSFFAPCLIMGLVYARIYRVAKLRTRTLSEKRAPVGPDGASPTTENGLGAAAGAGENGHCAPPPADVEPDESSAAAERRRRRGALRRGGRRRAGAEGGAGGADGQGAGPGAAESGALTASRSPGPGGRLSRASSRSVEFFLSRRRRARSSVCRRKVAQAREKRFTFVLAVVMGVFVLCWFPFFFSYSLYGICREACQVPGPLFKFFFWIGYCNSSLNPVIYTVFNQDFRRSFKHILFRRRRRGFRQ
Protocol: as §1

[7] = target: T3, CHRM4 (Cholinergic Muscarinic Receptor 4) (Homo sapiens, UniProt P08173); assay: DiscoverX GPCR Max Panel screen; format: cell-based; details: VDM-001 at 30 μM; Assay Mode Antagonist
T3 sequence (P08173 1-479): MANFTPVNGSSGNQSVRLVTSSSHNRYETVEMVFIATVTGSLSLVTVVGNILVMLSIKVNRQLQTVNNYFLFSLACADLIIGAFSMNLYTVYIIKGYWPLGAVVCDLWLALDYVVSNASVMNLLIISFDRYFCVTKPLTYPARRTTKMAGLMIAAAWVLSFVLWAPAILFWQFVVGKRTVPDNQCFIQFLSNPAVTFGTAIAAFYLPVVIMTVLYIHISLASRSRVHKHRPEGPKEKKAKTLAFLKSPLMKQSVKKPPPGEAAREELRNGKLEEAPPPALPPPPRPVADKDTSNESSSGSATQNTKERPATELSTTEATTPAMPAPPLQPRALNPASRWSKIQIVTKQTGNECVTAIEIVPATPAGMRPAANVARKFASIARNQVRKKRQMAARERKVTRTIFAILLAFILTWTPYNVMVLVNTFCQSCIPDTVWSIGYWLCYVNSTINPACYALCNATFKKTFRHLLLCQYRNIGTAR
Protocol: as §1

[8] = target: HTR1B (Serotonin 1B receptor) (Homo sapiens, UniProt P28222); assay: DiscoverX GPCR Max Panel screen; format: cell-based; details: VDM-001 at 30 μM; Assay Mode Antagonist
Sequence of HTR1B (Serotonin 1B receptor) (P28222 whole entry): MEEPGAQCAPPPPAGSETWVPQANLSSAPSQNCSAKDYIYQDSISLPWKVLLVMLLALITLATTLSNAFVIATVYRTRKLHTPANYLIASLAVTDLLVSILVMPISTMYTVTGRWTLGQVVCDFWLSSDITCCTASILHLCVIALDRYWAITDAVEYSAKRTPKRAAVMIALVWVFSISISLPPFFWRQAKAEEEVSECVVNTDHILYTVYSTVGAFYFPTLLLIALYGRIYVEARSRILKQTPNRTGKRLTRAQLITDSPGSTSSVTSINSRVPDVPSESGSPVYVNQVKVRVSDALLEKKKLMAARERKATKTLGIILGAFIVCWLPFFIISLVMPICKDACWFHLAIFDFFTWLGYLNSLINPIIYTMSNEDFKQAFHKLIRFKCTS
Protocol: as §1

[9] = target: T4, DRD4 (Dopamine D4 receptor) (Homo sapiens, UniProt P21917); assay: DiscoverX GPCR Max Panel screen; format: cell-based; details: VDM-001 at 30 μM; Assay Mode Antagonist
T4 sequence (P21917 1-419): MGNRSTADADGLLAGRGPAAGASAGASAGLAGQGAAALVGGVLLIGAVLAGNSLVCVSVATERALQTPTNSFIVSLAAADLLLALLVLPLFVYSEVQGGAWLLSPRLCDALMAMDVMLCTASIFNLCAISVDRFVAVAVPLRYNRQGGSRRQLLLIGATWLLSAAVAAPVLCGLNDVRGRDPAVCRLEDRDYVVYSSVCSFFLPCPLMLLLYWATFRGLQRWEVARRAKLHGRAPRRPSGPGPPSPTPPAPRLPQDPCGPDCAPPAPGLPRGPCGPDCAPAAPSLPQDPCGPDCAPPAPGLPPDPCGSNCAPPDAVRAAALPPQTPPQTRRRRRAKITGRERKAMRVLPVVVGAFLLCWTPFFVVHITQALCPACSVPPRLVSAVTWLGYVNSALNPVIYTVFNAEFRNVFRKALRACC
Protocol: as §1

[10] = target: T5, HTR1A (Serotonin 1A receptor) (Homo sapiens, UniProt P08908); assay: DiscoverX GPCR Max Panel screen; format: cell-based; details: VDM-001 at 30 μM; Assay Mode Antagonist
T5 sequence (P08908 1-422): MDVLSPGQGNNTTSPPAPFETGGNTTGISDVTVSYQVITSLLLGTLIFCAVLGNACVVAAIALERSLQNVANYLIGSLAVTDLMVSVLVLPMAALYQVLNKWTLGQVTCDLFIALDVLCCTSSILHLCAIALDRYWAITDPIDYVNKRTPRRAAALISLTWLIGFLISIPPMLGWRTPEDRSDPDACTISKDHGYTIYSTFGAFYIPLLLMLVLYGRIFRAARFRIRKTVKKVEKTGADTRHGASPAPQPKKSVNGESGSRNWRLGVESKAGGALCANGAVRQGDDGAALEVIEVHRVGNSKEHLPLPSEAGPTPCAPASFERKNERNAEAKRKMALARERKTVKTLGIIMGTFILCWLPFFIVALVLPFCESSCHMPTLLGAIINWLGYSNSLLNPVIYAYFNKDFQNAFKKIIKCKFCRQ
Protocol: as §1

[11] = target: CHRM3 (Cholinergic Muscarinic Receptor 3) (Homo sapiens, UniProt P20309); assay: DiscoverX GPCR Max Panel screen; format: cell-based; details: VDM-001 at 30 μM; Assay Mode Antagonist
Sequence of CHRM3 (Cholinergic Muscarinic Receptor 3) (P20309 whole entry): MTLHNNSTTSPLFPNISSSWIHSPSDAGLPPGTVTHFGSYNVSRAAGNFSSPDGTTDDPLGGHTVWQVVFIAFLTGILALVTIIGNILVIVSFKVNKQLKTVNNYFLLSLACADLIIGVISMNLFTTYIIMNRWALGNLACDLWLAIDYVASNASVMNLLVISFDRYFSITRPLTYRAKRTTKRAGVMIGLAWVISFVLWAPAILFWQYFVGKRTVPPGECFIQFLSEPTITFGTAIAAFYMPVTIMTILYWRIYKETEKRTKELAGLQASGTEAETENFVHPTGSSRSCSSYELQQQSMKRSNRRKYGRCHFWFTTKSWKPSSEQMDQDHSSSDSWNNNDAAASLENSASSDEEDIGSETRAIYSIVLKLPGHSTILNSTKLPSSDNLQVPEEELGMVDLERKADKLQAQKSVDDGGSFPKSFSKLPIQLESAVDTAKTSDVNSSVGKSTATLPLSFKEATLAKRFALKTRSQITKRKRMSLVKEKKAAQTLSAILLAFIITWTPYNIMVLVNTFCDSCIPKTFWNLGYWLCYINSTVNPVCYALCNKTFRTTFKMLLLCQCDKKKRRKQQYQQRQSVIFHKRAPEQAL
Protocol: as §1

[12] = target: OPRL1 (Nociceptin 1 receptor) (Homo sapiens, UniProt P41146); assay: DiscoverX GPCR Max Panel screen; format: cell-based; details: VDM-001 at 30 μM; Assay Mode Antagonist
Sequence of OPRL1 (Nociceptin 1 receptor) (P41146 whole entry): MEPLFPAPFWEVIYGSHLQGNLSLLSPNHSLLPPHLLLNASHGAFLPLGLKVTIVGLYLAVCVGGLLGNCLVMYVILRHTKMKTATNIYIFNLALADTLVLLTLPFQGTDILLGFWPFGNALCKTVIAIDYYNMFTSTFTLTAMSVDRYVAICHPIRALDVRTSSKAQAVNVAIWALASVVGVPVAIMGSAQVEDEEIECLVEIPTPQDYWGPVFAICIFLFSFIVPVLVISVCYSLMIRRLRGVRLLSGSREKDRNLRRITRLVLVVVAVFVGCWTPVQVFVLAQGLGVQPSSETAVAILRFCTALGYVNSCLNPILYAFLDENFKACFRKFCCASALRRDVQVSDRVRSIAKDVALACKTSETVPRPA
Protocol: as §1

[13] = target: T6, ADRA2B (Alpha 2B adrenergic receptor) (Homo sapiens, UniProt P18089); assay: DiscoverX GPCR Max Panel screen; format: cell-based; details: VDM-001 at 30 μM; Assay Mode Antagonist
T6 sequence (P18089 1-450): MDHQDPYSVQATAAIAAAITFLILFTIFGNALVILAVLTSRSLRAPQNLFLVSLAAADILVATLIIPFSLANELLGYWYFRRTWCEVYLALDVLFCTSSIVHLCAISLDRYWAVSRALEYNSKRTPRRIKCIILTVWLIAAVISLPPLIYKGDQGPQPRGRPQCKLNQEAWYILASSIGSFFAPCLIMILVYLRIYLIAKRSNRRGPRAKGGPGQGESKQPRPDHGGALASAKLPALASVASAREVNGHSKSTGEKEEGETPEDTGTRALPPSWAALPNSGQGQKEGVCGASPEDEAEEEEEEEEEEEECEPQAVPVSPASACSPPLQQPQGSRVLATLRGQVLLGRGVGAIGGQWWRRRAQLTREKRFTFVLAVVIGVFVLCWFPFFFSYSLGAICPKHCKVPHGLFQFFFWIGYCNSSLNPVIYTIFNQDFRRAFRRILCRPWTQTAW
Protocol: as §1

[14] = target: T7, ADRA1B (Alpha 1B adrenergic receptor) (Homo sapiens, UniProt P35368); assay: DiscoverX GPCR Max Panel screen; format: cell-based; details: VDM-001 at 30 μM; Assay Mode Antagonist
T7 sequence (P35368 1-520): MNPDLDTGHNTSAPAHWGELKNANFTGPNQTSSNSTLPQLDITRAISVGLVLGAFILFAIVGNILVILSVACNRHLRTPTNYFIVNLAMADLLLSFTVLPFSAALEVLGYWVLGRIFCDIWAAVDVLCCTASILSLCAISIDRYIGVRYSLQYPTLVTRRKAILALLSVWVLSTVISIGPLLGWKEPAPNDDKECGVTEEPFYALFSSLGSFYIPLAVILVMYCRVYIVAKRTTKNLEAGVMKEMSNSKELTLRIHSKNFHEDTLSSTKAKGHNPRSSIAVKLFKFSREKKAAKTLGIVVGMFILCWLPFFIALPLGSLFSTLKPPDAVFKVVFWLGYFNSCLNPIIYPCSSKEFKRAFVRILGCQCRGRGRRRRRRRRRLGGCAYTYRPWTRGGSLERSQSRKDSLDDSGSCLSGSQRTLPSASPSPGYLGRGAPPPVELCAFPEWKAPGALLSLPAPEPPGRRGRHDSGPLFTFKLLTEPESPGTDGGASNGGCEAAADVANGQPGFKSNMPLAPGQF
Protocol: as §1

[15] = target: T8, CHRM5 (Cholinergic Muscarinic Receptor 5) (Homo sapiens, UniProt P08912); assay: DiscoverX GPCR Max Panel screen; format: cell-based; details: VDM-001 at 30 μM; Assay Mode Antagonist
T8 sequence (P08912 1-532): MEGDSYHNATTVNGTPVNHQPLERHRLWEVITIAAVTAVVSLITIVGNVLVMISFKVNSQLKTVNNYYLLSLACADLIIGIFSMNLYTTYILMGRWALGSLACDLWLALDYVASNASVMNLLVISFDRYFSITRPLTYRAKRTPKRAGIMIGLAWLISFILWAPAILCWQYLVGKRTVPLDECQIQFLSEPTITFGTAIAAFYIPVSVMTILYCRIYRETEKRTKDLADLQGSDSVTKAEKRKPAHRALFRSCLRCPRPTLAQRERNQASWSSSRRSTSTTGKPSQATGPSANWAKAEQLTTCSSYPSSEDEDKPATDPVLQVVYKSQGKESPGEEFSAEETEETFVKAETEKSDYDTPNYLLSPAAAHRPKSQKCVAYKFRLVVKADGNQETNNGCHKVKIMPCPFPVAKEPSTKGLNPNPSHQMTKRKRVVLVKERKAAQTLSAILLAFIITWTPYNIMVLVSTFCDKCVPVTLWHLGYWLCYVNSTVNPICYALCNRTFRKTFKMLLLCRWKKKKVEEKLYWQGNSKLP
Protocol: as §1

[16] = target: HRH1 (Histamine H1 receptor) (Homo sapiens, UniProt P35367); assay: DiscoverX GPCR Max Panel screen; format: cell-based; details: VDM-001 at 30 μM; Assay Mode Antagonist
Sequence of HRH1 (Histamine H1 receptor) (P35367 whole entry): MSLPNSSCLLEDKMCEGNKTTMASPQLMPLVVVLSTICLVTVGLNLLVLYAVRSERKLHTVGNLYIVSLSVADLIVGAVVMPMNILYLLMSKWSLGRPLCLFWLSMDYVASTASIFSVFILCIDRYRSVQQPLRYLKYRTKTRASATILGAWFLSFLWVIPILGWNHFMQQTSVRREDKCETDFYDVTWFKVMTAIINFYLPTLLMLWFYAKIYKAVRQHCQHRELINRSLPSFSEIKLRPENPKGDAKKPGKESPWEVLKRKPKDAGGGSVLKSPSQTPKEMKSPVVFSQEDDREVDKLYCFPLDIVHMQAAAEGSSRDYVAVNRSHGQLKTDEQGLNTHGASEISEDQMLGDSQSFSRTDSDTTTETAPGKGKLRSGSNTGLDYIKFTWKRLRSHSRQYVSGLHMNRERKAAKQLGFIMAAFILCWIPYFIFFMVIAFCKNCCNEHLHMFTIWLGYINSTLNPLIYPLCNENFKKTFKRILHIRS
Protocol: as §1

[17] = test system: Sigma sites; assay: Receptor activity profile (stated)
[18] = target: mu opioid receptors (Homo sapiens, UniProt P35372); assay: Receptor activity profile (stated)
Sequence of mu opioid receptors (P35372 whole entry): as the sequence (P35372 whole entry) above

[19] = target: MOR (Homo sapiens, UniProt P35372); assay: GTPgS studies; format: biochemical; details: read-out: IC50 from the GTPgS studies
Sequence of MOR (P35372 whole entry): as above

Sequence of kappa receptors (P41145 whole entry): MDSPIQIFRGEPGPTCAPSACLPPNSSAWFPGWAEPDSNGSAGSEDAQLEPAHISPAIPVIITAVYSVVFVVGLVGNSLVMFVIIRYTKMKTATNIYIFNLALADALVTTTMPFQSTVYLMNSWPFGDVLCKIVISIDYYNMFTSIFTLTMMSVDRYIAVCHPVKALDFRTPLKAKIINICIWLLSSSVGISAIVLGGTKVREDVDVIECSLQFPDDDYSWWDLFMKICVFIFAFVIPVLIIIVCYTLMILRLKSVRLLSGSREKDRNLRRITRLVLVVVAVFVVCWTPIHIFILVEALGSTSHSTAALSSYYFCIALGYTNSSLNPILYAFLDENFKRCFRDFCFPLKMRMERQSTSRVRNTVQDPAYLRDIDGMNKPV
Sequence of ORL1 receptors (P41146 whole entry): as the sequence (P41146 whole entry) above

SMILES: CCC(=O)NC1CC(C)N(CCc2ccccc2)CC1C (stereo not drawn) [VDM-001, N-[2,5-dimethyl-1-(2-phenylethyl)piperidin-4-yl]propanamide]
- mode of action at ORL1 receptors [1]: antagonist
- mode of action at kappa receptors [2]: antagonist
- incidence of diarrhea ([3]; 20 mg/kg, equal to the control): around 1%
- incidence of diarrhea ([3]; 40 mg/kg): less than 20%
- opiate withdrawal signs ([3]; 20 or 40 mg/kg): minimal, if any, opiate withdrawal signs; also recorded: did not precipitate morphine withdrawal symptoms; also recorded: did not show significant withdrawal signs
- Activity [4]: 87%
- Activity [5]: 72%
- Activity [6]: 104%
- Activity [7]: 72%
- Activity [8]: 60%
- Activity [9]: 75%
- Activity [10]: 73%
- Activity [11]: 85%
- Activity [12]: 54%
- Activity [13]: 98%
- Activity [14]: 84%
- Activity [15]: 74%
- Activity [16]: 99%
- mode of action at Sigma sites [17]: either agonist or antagonist activity
- mode of action at mu opioid receptors [18]: partial agonist
- IC50 [19]: 30 µM

SMILES: C=CCN1CC[C@]23c4c5ccc(O)c4O[C@H]2C(=O)CC[C@@]3(O)[C@H]1C5 [naloxone, 17-allyl-4,5a-epoxy-3,14-dihydroxymorphinan-6-one, reference compound]
- incidence of diarrhea ([3]; 1 mg/kg): over 80%
- opiate withdrawal signs ([3]; 1 mg/kg): large opiate withdrawal signs
- opiate withdrawal signs ([3]; 1 mg/kg, listed as Naloxone): precipitated a large number of withdrawal signs
